Experimental data as given in ChEMBL document CHEMBL6074676, “Optimization and Biological Evaluation of Novel 1H-Pyrrolo[2,3-c]pyridin Derivatives as Potent and Reversible Lysine Specific Demethylase 1 Inhibitors for the Treatment of Acute Myelogenous Leukemia” (J Med Chem, 2024).

Legend:
[1] = target: T1, Lysine-specific histone demethylase 2 (Homo sapiens, UniProt Q8NB78); assay: Inhibition of N-terminal GST-tagged recombinant full length human LSD2 expressed in Baculovirus using Bio- H3K4me2 (1 to 24 residues) as substrate incubated for 1 hr by TR-FRET assay
T1 sequence (Q8NB78 whole entry): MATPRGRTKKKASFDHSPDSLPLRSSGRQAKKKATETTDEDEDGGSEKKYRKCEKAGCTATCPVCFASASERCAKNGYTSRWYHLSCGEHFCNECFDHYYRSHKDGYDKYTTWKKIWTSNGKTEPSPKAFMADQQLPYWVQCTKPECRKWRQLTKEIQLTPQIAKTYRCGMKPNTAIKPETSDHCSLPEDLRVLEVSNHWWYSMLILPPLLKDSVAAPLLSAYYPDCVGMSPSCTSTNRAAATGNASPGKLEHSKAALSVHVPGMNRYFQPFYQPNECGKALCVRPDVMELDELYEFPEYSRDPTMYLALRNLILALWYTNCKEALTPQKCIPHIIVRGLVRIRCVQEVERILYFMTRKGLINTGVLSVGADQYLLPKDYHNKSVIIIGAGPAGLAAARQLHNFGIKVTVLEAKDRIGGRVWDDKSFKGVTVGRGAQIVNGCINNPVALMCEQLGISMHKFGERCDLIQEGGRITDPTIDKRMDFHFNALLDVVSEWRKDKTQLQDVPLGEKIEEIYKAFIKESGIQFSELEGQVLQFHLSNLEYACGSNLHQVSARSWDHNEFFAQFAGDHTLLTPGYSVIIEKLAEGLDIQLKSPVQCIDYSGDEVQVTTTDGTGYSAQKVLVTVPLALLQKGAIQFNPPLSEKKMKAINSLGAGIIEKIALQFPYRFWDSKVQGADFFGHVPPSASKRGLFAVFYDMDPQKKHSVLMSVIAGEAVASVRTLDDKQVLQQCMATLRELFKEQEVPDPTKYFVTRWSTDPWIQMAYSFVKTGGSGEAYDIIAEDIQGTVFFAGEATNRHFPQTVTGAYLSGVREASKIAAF

[2] = target: T2, Cytochrome P450 1A2 (Homo sapiens, UniProt P05177); assay: Inhibition of CYP1A2 in human liver microsomes; format: ADME, Microsome
T2 sequence (P05177 whole entry): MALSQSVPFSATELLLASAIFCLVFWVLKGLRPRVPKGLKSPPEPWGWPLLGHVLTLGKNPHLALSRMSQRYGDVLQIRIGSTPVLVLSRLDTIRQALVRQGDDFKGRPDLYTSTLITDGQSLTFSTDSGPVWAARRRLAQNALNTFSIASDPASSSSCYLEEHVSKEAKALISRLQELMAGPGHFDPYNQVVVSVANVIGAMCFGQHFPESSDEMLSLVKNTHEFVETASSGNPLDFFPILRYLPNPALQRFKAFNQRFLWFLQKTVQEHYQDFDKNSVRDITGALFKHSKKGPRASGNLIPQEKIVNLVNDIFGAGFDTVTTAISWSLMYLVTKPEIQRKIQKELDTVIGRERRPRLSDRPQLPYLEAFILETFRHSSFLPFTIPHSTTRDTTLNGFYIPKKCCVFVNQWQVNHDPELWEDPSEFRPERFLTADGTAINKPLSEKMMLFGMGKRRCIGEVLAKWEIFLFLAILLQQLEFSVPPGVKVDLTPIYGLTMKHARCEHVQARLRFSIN

[3] = target: Cytochrome P450 2C9 (Homo sapiens, UniProt P11712); assay: Inhibition of CYP2C9 in human liver microsomes; format: ADME, Microsome
[4] = target: Cytochrome P450 2C19 (Homo sapiens, UniProt P33261); assay: Inhibition of CYP2C19 in human liver microsomes; format: ADME, Microsome
[5] = target: Cytochrome P450 2D6 (Homo sapiens, UniProt P10635); assay: Inhibition of CYP2D6 in human liver microsomes; format: ADME, Microsome
[6] = target: Cytochrome P450 3A4 (Homo sapiens, UniProt P08684); assay: Inhibition of CYP3A4 in human liver microsomes; format: ADME, Microsome
[7] = target: T3, Amine oxidase [flavin-containing] A (Homo sapiens, UniProt P21397); assay: biochemical
T3 sequence (P21397 whole entry): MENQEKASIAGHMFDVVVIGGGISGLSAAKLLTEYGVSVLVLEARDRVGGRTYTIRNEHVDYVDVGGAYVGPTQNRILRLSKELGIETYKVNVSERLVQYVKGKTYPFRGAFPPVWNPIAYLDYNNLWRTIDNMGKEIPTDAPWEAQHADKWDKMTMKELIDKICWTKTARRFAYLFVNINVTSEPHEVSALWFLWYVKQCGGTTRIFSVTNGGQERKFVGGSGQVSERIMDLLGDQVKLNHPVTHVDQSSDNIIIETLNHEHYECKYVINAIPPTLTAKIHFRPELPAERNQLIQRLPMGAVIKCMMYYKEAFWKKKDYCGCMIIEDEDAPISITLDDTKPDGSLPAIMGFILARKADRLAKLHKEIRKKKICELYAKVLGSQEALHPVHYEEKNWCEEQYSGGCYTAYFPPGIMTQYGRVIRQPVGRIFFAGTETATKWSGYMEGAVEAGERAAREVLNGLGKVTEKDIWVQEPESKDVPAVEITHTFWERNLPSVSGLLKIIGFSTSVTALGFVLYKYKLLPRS
Description: Inhibition of human recombinant MAO-A expressed in baculovirus infected BTI cells by luminescence assay

[8] = target: T4, Amine oxidase [flavin-containing] B (Homo sapiens, UniProt P27338); assay: biochemical
T4 sequence (P27338 whole entry): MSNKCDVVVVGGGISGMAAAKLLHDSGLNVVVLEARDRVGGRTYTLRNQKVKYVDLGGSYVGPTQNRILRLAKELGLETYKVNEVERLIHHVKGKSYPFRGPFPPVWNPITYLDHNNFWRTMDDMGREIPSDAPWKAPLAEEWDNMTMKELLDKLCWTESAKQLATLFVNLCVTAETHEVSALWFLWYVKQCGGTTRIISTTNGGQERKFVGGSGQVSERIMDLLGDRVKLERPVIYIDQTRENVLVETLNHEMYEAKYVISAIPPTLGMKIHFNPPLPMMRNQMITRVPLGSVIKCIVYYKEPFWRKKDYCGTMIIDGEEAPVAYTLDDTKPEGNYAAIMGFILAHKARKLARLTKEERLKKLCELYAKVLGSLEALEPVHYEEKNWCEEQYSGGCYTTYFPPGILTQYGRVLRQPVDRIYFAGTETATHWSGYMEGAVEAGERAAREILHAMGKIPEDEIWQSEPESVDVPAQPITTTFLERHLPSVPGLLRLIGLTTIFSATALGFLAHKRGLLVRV
Description: Inhibition of human recombinant MAO-B expressed in baculovirus infected BTI cells by luminescence assay

[9] = system: MV4-11; assay: Antitumor activity against human MV4-11 cells xenografted in Nu/Nu female mouse model assessed as reduction in tumor volume at 20 mg/kg, sc measured immediately (reference value: 131+/-53 mm3); format: functional
[10] = system: MV4-11; assay: Antitumor activity against human MV4-11 cells xenografted in Nu/Nu female mouse model assessed as reduction in tumor volume at 20 mg/kg, sc administered 5 days per week and measured on day 17 (reference value: 1187+/-508 mm3); format: functional; conditions: time 17 day
[11] = system: MV4-11; assay: Antitumor activity against human MV4-11 cells xenografted in Nu/Nu female mouse model assessed as relative tumor volume at 20 mg/kg, sc administered 5 days per week and measured on day 17 (reference value: 9.52+/-4.19); format: functional; conditions: time 17 day
[12] = system: MV4-11; assay: Antitumor activity against human MV4-11 cells xenografted in Nu/Nu female mouse model assessed as relative tumor growth rate at 20 mg/kg, sc administered 5 days per week and measured on day 17 relative to control; format: functional; conditions: time 17 day
[13] = system: MV4-11; assay: Antitumor activity against human MV4-11 cells xenografted in Nu/Nu female mouse model assessed as tumor growth inhibition at 20 mg/kg, sc administered 5 days per week and measured on day 17 relative to control; format: functional; conditions: MV4-11, 408 h, time 17 day, read-out: TGI
[14] = system: Kasumi 1; assay: Antiproliferative activity against human Kasumi 1 cells assessed as inhibition of cell growth incubated for 240 hrs by MTS assay; format: functional, cell-based; conditions: Kasumi 1, 240 h
[15] = system: NCI-H526; assay: Antiproliferative activity against human NCI-H526 cells assessed as inhibition of cell growth incubated for 240 hrs by MTS assay; format: functional, cell-based; conditions: NCI-H526, 240 h
[16] = Upregulation of CD86 mRNA expression level in human MV4-11 cells measured after 24 hrs by RT-qPCR analysis; format: functional, cell-based; conditions: MV4-11, 24 h
[17] = system: MV4-11; assay: Antitumor activity against human MV4-11 cells xenografted in Nu/Nu female mouse model assessed as reduction in tumor volume at 20 mg/kg, po qd measured immediately (reference value: 131+/-53 mm3); format: functional
[18] = system: MV4-11; assay: Antitumor activity against human MV4-11 cells xenografted in Nu/Nu female mouse model assessed as reduction in tumor volume at 20 mg/kg, po qd and measured on day 17 (reference value: 1187+/-508 mm3); format: functional; conditions: time 17 day
[19] = system: MV4-11; assay: Antitumor activity against human MV4-11 cells xenografted in Nu/Nu female mouse model assessed as relative tumor volume at 20 mg/kg, po qd and measured on day 17 (reference value: 9.52+/-4.19); format: functional; conditions: time 17 day
[20] = system: MV4-11; assay: Antitumor activity against human MV4-11 cells xenografted in Nu/Nu female mouse model assessed as relative tumor growth rate at 20 mg/kg, po qd and measured on day 17 relative to control; format: functional; conditions: time 17 day
[21] = system: MV4-11; assay: Antitumor activity against human MV4-11 cells xenografted in Nu/Nu female mouse model assessed as tumor growth inhibition at 20 mg/kg, po qd and measured on day 17 relative to control; format: functional; conditions: MV4-11, 408 h, time 17 day, read-out: TGI

Cytochrome P450 2C19, sequence (P33261 whole entry): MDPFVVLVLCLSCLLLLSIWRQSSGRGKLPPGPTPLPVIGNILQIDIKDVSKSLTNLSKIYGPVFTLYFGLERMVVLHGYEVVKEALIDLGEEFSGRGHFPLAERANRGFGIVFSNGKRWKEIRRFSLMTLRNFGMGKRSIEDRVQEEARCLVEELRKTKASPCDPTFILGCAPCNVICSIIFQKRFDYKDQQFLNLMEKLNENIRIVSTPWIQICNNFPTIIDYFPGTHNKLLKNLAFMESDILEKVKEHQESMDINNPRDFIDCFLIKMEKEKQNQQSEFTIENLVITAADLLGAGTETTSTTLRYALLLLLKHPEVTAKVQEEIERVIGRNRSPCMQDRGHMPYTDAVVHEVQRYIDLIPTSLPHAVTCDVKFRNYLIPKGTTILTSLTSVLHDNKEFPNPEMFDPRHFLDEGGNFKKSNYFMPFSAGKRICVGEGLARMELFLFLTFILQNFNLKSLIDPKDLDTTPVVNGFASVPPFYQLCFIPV
Cytochrome P450 2C9, sequence (P11712 whole entry): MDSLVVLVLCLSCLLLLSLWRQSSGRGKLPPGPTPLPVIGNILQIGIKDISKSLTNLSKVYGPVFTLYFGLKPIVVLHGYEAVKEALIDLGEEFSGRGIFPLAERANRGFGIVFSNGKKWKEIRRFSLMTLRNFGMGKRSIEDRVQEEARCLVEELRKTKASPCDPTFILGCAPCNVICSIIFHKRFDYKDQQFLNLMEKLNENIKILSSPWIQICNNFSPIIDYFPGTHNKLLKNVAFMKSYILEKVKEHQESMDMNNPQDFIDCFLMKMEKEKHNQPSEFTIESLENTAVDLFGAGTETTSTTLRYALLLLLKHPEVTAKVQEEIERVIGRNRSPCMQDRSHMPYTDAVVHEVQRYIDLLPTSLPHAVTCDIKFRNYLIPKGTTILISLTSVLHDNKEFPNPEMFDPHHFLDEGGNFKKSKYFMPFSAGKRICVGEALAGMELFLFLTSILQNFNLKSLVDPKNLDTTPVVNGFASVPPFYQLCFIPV
Cytochrome P450 2D6, sequence (P10635 whole entry): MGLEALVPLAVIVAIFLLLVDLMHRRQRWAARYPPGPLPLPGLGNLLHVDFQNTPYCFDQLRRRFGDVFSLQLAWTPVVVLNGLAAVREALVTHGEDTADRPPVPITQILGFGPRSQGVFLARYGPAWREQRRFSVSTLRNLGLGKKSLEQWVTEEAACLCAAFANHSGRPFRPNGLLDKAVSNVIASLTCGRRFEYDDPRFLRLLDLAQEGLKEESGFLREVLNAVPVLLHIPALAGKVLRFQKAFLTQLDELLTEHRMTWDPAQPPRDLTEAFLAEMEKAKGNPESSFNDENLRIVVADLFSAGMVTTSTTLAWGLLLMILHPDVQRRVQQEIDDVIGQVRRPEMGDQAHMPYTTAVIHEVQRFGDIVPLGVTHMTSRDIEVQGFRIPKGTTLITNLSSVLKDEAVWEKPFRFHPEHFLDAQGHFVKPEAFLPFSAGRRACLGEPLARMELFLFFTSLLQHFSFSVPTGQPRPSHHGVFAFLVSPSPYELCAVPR
Cytochrome P450 3A4, sequence (P08684 whole entry): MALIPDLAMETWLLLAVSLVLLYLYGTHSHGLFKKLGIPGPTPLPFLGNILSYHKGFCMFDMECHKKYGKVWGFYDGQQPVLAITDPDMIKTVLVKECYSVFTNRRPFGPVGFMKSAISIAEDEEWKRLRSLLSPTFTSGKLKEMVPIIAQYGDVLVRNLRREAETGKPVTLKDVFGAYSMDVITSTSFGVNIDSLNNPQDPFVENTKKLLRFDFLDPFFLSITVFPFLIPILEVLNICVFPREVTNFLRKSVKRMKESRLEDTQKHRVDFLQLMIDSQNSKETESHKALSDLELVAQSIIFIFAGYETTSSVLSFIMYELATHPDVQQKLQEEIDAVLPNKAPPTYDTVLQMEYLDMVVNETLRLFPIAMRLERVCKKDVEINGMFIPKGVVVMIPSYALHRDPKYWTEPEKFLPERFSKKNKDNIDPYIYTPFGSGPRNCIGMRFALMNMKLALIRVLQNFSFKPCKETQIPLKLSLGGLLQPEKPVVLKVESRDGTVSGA

| SMILES | IC50 [1] | IC50 [2] | IC50 [3] | IC50 [4] | IC50 [5] | IC50 ([6]; read-out: IC50) | IC50 [7] | IC50 [8] | further results |
| --- | --- | --- | --- | --- | --- | --- | --- | --- | --- |
| Cc1cc(C)c(-c2ncc3c(cc(CN4CC[C@H](N)C4)n3C(C)C)c2-c2ccc(C#N)c(F)c2)cc1C | > 20 µM | > 50 µM | 32.9 µM |  | 46.7 µM |  | > 20 µM | > 20 µM | IC50 [6]: 4.53 µM |
| Cc1cc(-c2ncc3c(cc(CN4CC[C@H](N)C4)n3C(C)C)c2-c2ccc(C#N)c(F)c2)cc(C)c1C | > 20 µM | > 50 µM | 30 µM | 17.9 µM | > 50 µM | 4.96 µM | > 20 µM | > 20 µM |  |
| Cc1cc(C)c(-c2ncc3c(cc(CN4CC[C@H](N)C4)n3CC(F)(F)F)c2-c2ccc(C#N)c(F)c2)cc1C | > 20 µM | > 50 µM | 27.3 µM | 22 µM | 20.4 µM | 7.74 µM | > 20 µM | > 20 µM |  |
| CCn1c(CN2CC[C@H](N)C2)cc2c(-c3ccc(C#N)c(F)c3)c(-c3cc(C)c(C)c(C)c3)ncc21 | > 20 µM |  |  |  |  |  | > 20 µM | > 20 µM |  |
| Cc1cc(C)c(-c2ncc3c(cc(CN4CC[C@H](N)C4)n3CC(F)F)c2-c2ccc(C#N)c(F)c2)cc1C | > 20 µM |  |  |  |  |  | > 20 µM | > 20 µM |  |
| Nc1ccn([C@@H]2O[C@H](CO)[C@@H](O)[C@@H]2O)c(=O)n1 [CYTARABINE] |  |  |  |  |  |  |  |  | Activity [9]: 131 mm3; Activity [10]: 741 mm3; Activity [11]: 5.65; Activity [12]: 59.36%; inhibition in vivo at 20 mg/kg [13]: 54.7% |
| COc1ccc(-c2c(-c3ccc(C#N)c(F)c3)nc(N3CCC(N)CC3)n(C)c2=O)cc1F [PULRODEMSTAT] |  |  |  |  |  |  |  |  | IC50 [14]: 0.003 µM; IC50 [15]: 0.01 µM; EC50 [16]: 0.032 µM; Activity [17]: 132 mm3; Activity [18]: 554 mm3; Activity [19]: 3.75; Activity [20]: 39.33%; inhibition in vivo at 20 mg/kg [21]: 64.2% |

Continued, in another order:

| IC50 [1] | IC50 [2] | IC50 [3] | IC50 [4] | IC50 [5] | IC50 ([6]; read-out: IC50) | IC50 [7] | IC50 [8] | SMILES | further results |
| --- | --- | --- | --- | --- | --- | --- | --- | --- | --- |
| > 20 µM | > 50 µM | 28.8 µM | 24.8 µM | 43.1 µM | 9.46 µM | > 20 µM | > 20 µM | Cc1ccc(-c2ncc3c(cc(CN4CC[C@H](N)C4)n3C(C)C)c2-c2ccc(C#N)c(F)c2)cc1C |  |
| > 20 µM | > 50 µM | 45.5 µM | 25.8 µM | 45.7 µM | 20.9 µM | > 20 µM | > 20 µM | Cc1ccc(-c2ncc3c(cc(CN4CC[C@H](N)C4)n3CC(F)F)c2-c2ccc(C#N)c(F)c2)cc1C |  |
| > 20 µM |  |  |  |  |  | > 20 µM | > 20 µM | Cc1cc(C)c(-c2ncc3c(cc(CN4CC[C@H](N)C4)n3C)c2-c2ccc(C#N)c(F)c2)cc1C |  |
